As usually defined, the IC50 is the concentration needed to halve the response being measured.

For one assay, the target named is T1, VEGFR-2 (Homo sapiens, UniProt P35968).
T1 construct: purchased Cell Signaling Technology CO
T1 sequence (P35968 20-1356): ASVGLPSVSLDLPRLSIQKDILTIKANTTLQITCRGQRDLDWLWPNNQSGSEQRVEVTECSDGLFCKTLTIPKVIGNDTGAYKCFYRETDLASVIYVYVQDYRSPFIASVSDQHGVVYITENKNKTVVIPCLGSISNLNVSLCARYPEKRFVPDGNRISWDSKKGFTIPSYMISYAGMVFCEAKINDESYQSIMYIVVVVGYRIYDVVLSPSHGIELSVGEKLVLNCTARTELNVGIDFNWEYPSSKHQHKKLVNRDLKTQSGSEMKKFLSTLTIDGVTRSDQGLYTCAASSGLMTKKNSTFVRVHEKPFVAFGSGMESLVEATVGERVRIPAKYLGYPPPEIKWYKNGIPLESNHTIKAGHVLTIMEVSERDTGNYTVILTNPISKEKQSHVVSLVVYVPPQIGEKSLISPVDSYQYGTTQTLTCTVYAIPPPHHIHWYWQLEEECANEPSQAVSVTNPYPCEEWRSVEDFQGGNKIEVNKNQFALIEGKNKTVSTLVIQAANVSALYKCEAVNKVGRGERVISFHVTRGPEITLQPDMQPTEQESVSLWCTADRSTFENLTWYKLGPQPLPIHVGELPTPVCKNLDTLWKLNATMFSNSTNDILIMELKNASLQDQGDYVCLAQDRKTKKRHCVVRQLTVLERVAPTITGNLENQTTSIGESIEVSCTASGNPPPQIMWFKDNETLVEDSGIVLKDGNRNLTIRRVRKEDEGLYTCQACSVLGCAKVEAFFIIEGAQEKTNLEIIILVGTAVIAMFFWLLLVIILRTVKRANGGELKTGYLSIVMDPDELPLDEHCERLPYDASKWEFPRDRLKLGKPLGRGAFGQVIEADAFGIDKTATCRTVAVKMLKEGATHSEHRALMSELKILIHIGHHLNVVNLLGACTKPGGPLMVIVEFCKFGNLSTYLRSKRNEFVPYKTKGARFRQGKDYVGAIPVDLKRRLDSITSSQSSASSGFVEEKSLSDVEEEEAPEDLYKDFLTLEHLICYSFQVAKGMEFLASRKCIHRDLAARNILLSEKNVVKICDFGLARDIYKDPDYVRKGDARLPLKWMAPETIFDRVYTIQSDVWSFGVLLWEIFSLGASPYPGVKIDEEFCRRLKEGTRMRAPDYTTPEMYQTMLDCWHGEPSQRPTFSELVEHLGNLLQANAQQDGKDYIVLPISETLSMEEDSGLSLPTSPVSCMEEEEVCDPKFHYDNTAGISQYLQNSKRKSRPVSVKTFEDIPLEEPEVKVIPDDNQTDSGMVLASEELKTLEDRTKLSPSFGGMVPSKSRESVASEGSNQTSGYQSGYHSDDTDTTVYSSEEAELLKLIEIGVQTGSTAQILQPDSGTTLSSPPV
Kind of assay: Protein kinase activity by ELISA in vitro, VEGFR-2. Particulars: concentration of 10^−7 mol/L; read-out: kinase inhibition ratio, VEGFR-2. The assay is classed as biochemical. On the procedure: An ELISA (Enzyme-Linked Immunosorbent Sandwich Assay) procedure may be used to detect and measure the level of protein tyrosine kinase activity. […] According to the principle of ELISA, a monoclonal antibody can react with phosphorylated substrate specially, so biotin-labeled substrate is binded to streptavidin-coated ELISA plate, and then binded to a HRP-labeled goat anti-mouse antibody. Finally TMB is added for a color reaction and the value of A450-A630 is read by ELISA plate reader. The OD value can reflect the inhibitory activity of the VEGFR-2, PDGFR-β, c-Kit tyrosine kinases etc. treated with the test compounds at the different concentrations. So, the assay may be used to measure the inhibition ratio of the compounds for the tyrosine kinase activity. Similar assays can be designed along the same lines for any PK using techniques well known in the art.
According to the principle of ELISA, a monoclonal antibody can react with phosphorylated substrate specially, so biotin-labeled substrate is binded to streptavidin-coated ELISA plate, and then binded to a HRP-labeled goat anti-mouse antibody. Finally TMB is added for a color reaction and the value of A450-A630 is read by ELISA plate reader. The OD value can reflect the inhibitory activity of the VEGFR-2, PDGFR-β c-Kit tyrosine kinases treated with the test compounds at the different concentrations. So, the assay may be used to measure the inhibition ratio of the compounds for the tyrosine kinase activity. Similar assays can be designed along the same lines for any PK using techniques well known in the art.
VEGF Receptor 2, PDGF Receptor-beta and c-kit kinase assay kit (include kinase, 1.25M DTT, substrate peptide, 10 mM ATP, P-Tyr-100 Mouse antibody, 4×HTScan tyrosine kinase buffer), Cell Signaling Technology CO.; HRP labeled goat anti mouse IgG, Protein Tech CO.; TMB, Pierce CO.; Streptavidin Microtitration Plate, Greiner Bio-one CO.; Infinite M200 Reader, Tecan CO.
1.2.1 Immediately transfer enzyme from −80° C. to ice. Allow enzyme to thaw on ice then at 4° C. and centrifugate transiently to the bottom of centrifuge tube, then lay back on ice quickly
1.2.2 Add 10 μl of DTT (1.25 M) to 2.5 ml of 4×HTScan tyrosine kinase buffer (240 mM HEPES pH 7.5, 20 mM MgCl2, 20 mM MnCl2, 12 μM Na3VO4). Transfer 0.6 ml of DTT/Kinase buffer to each enzyme tube to make 4× reaction Cocktail. Incubate 12.5 μl of the 4× reaction cocktail with 12.5 μl/well prediluted compound of interest for 5 minutes at room temperature, and set blank control, free-enzyme control, negative control and positive control. 1.2.3 Add 10 μl 10 mM ATP to 1.25 ml 6 μM substrate peptide. Dilute the mixture with dH20 to 2.5 ml to make 2×ATP/substrate cocktail. Add 25 μl of 2×ATP/substrate cocktail to 25 μl/well preincubated reaction cocktail/compound. Incubate reaction plate at room temperature for 30 minutes. 1.2.4 Add 50 μl/well stop Buffer (50 mM EDTA, pH 8) to stop the reaction. Transfer 25 μl of each reaction and 75 μl dH2O/well to a 96-well streptavidin coated plate and incubate at room temperature for 60 minutes. Wash three times with 200 μl/well PBS/T(1×PBS, 0.05% Tween-20). 1.2.5 Dilute primary antibody, Phospho-Tyrosine mAb (P-Tyr-100), 1:500 in PBS/T with 1% BSA. Add 100 μl/well primary antibody. Incubate at room temperature for 60 minutes. Wash three times with 200 μl/well PBS/T(1×PBS, 0.05% Tween-20). 1.2.6 Prepare appropriate dilution of HRP labeled secondary antibody, 1:500 in PBS/T with 1% BSA. Add 100 μl/well secondary antibody solution. Incubate at room temperature for 30 minutes. Wash five times with 200 μl/well PBS/T 1.2.7 Add 100 μl/well TMB substrate and incubate at room temperature for 1-10 minutes. Add 50 μl 2M H2SO4 to stop the color reaction. Read the absorbance of A450-A630 with the Infinite M200 microtiter plate reader. 1.2.8 Calculate the inhibition ratio with the following formula: […]
Regarding `Cc1[nH]c2c(c1C(=O)NCCCN(C)C)CCC/C2=C1/C(=O)Nc2ccc(Cl)cc21` [I-7, N-(3-(dimethylamino)propyl)-2-methyl-7-[1,2-dihydro-5-chloro-2-oxo-3H-indol-(Z)-3-ylidene]-4,5,6,7-tetrahydro-1H-indole-3-carboxamide], the inhibition at 0.1 µM came to 82%.

Take `CCN(CC)CCNC(=O)c1c(C)[nH]c2c1CCC/C2=C1/C(=O)Nc2ccc(C)cc21` [I-4, N-(2-(diethylamino)ethyl)-2-methyl-7-[1,2-dihydro-5-methyl-2-oxo-3H-indol-(Z)-3-ylidene]-4,5,6,7-tetrahydro-1H-indole-3-carboxamide]: the inhibition at 0.1 µM is 76%.

For `CCN(CC)CCNC(=O)c1c(C)[nH]c2c1CCC/C2=C1/C(=O)Nc2ccc(Cl)cc21` [I-3, N-(2-(diethylamino)ethyl)-2-methyl-7-[1,2-dihydro-5-chloro-2-oxo-3H-indol-(Z)-3-ylidene]-4,5,6,7-tetrahydro-1H-indole-3-carboxamide], the inhibition at 0.1 µM was found to be 54%.

`CCN(CC)CCNC(=O)c1c(C)[nH]c2c1CCC/C2=C1/C(=O)Nc2ccc(F)cc21` [I-2, N-(2-(diethylamino)ethyl)-2-methyl-7-[1,2-dihydro-5-fluoro-2-oxo-3H-indol-(Z)-3-ylidene]-4,5,6,7-tetrahydro-1H-indole-3-carboxamide]: the inhibition at 0.1 µM turned out to be 75%.

Take `CCN(CC)CCNC(=O)c1c(C)[nH]c2c1CCC/C2=C1/C(=O)Nc2ccccc21` [I-5, N-(2-(diethylamino)ethyl)-2-methyl-7-[1,2-dihydro-2-oxo-3H-indol-(Z)-3-ylidene]-4,5,6,7-tetrahydro-1H-indole-3-carboxamide]: the inhibition at 0.1 µM is 74%.

For the molecule `Cc1[nH]c2c(c1C(=O)NCC(O)CN1CCCC1)CCC/C2=C1/C(=O)Nc2ccccc21` (stereo not drawn) [I-70, N-(2-hydroxy-3-(pyrrolidin-1-yl)propyl)-2-methyl-7-[1,2-dihydro-2-oxo-3H-indol-(Z)-3-ylidene]-4,5,6,7-tetrahydro-1H-indole-3-carboxamide], the inhibition at 0.1 µM turned out to be 84%.

Consider `CCN(CC)CC(O)CNC(=O)c1c(C)[nH]c2c1CCC/C2=C1/C(=O)Nc2ccccc21` (stereo not drawn) [I-63, N-(3-(diethylamino)-2-hydroxypropyl)-2-methyl-7-[1,2-dihydro-2-oxo-3H-indol-(Z)-3-ylidene]-4,5,6,7-tetrahydro-1H-indole-3-carboxamide], for which the inhibition at 0.1 µM turned out to be 80%.

In the case of `Cc1[nH]c2c(c1C(=O)NCCO)CCC/C2=C1/C(=O)Nc2ccccc21` [I-8, N-(2-hydroxyethyl)-2-methyl-7-[1,2-dihydro-2-oxo-3H-indol-(Z)-3-ylidene]-4,5,6,7-tetrahydro-1H-indole-3-carboxamide], the inhibition at 0.1 µM is 76%.

On to `Cc1[nH]c2c(c1C(=O)NCCN(C)C)CCC/C2=C1/C(=O)Nc2ccc(F)cc21` [I-6, N-(2-(dimethylamino)ethyl)-2-methyl-7-[1,2-dihydro-5-fluoro-2-oxo-3H-indol-(Z)-3-ylidene]-4,5,6,7-tetrahydro-1H-indole-3-carboxamide], for which the inhibition at 0.1 µM is 79%.

Still in this assay, the particulars now being: read-out: IC50 of the VEGF Receptor Kinase.
`Cc1[nH]c2c(c1C(=O)NCC(O)CN1CCCC1)CCC/C2=C1/C(=O)Nc2ccc(F)cc21` (stereo not drawn) [I-71, N-(2-hydroxy-3-(pyrrolidin-1-yl)propyl)-2-methyl-7-[1,2-dihydro-5-fluoro-2-oxo-3H-indol-(Z)-3-ylidene]-4,5,6,7-tetrahydro-1H-indole-3-carboxamide]: the IC50 amounted to 34 nM.

`Cc1[nH]c2c(c1C(=O)NCC(O)CN1CCOCC1)CCC/C2=C1/C(=O)Nc2ccc(F)cc21` (stereo not drawn) [I-68, N-(2-hydroxy-3-morpholinopropyl)-2-methyl-7-[1,2-dihydro-5-fluoro-2-oxo-3H-indol-(Z)-3-ylidene]-4,5,6,7-tetrahydro-1H-indole-3-carboxamide]: the IC50 was found to be 43 nM.

As to `CCN(CC)CCNC(=O)c1c(C)[nH]c2c1CCC/C2=C1/C(=O)Nc2ccc(C)cc21` [I-4, N-(2-(diethylamino)ethyl)-2-methyl-7-[1,2-dihydro-5-methyl-2-oxo-3H-indol-(Z)-3-ylidene]-4,5,6,7-tetrahydro-1H-indole-3-carboxamide], the IC50 was 5.6 nM.

Consider `CCN(CC)CCNC(=O)c1c(C)[nH]c2c1CCC/C2=C1/C(=O)Nc2ccc(Cl)cc21` [I-3, N-(2-(diethylamino)ethyl)-2-methyl-7-[1,2-dihydro-5-chloro-2-oxo-3H-indol-(Z)-3-ylidene]-4,5,6,7-tetrahydro-1H-indole-3-carboxamide], for which the 50% inhibitory concentration (IC50) came out at 5.3 nM.

Regarding `Cc1[nH]c2c(c1C(=O)NCC(O)CN1CCCCC1)CCC/C2=C1/C(=O)Nc2ccc(F)cc21` (stereo not drawn) [I-74, N-(2-hydroxy-3-(piperidin-1-yl)propyl)-2-methyl-7-[1,2-dihydro-5-fluoro-2-oxo-3H-indol-(Z)-3-ylidene]-4,5,6,7-tetrahydro-1H-indole-3-carboxamide], the IC50 was determined as 13 nM.

Regarding `CCN(CC)CCNC(=O)c1c(C)[nH]c2c1CCC/C2=C1/C(=O)Nc2ccccc21` [I-5, N-(2-(diethylamino)ethyl)-2-methyl-7-[1,2-dihydro-2-oxo-3H-indol-(Z)-3-ylidene]-4,5,6,7-tetrahydro-1H-indole-3-carboxamide], the concentration for half-maximal inhibition (IC50) was determined as 9 nM.

In the case of `Cc1[nH]c2c(c1C(=O)NCCO)CCC/C2=C1/C(=O)Nc2ccc(F)cc21` [I-9, N-(2-hydroxyethyl)-2-methyl-7-[1,2-dihydro-5-fluoro-2-oxo-3H-indol-(Z)-3-ylidene]-4,5,6,7-tetrahydro-1H-indole-3-carboxamide], the IC50 was found to be 30 nM.

For `Cc1[nH]c2c(c1C(=O)NCC(O)CN1CCN(C)CC1)CCC/C2=C1/C(=O)Nc2ccc(F)cc21` (stereo not drawn) [I-77, N-[2-hydroxy-3-(4-methylpiperazin-1-yl)propyl]-2-methyl-7-[1,2-dihydro-5-fluoro-2-oxo-3H-indol-(Z)-3-ylidene]-4,5,6,7-tetrahydro-1H-indole-3-carboxamide], the IC50 is 25 nM.

Take `Cc1[nH]c2c(c1C(=O)N1CCN(C)CC1)CCC/C2=C1/C(=O)Nc2ccc(F)cc21` [I-14, 2-methyl-3-(4-methylpiperazine-1-carbonyl)-7-[1,2-dihydro-5-fluoro-2-oxo-3H-indol-(Z)-3-ylidene]-4,5,6,7-tetrahydro-1H-indole]: the IC50 worked out at 79 nM.

These data come from US8084621B2, “3-Pyrrolo[b]cyclohexylene-2-dihydroindolinone derivatives and uses thereof” (Jiangsu Simcere Pharmaceutical R&D Co. Ltd., priority 2006, dated 2011).
